Test results taken from patent publication US20220380286A1, “METHOD FOR PRODUCING 2,2'-BIS(CARBOXYMETHOXY)-1,1'-BINAPHTHYL” (HONSHU CHEMICAL INDUSTRY CO., LTD., priority 2019, published 2022).

Experiment: solubility in water (concentration of saturated solution)
Assay type: physicochemical
Settings: 30° C., crystals filtered in Example 2
Method: After two hours, the reaction solution was gradually cooled and filtered at 25° C. (corresponding to the separation step of the present invention) to obtain crystals. […] The crystals were washed with water (18 g) and then washed with methyl isobutyl ketone (18 g) to obtain 109.0 g of a sodium salt of 2,2′-bis(carboxymethoxy)-1,1′-binaphthyl. For the removal of a mother liquor during the filtration, centrifugal force (small centrifuge H-122, manufactured by KOKUSAN Co., Ltd.) was utilized.

Compound: O=C([O-])COc1ccc2ccccc2c1-c1c(OCC(=O)[O-])ccc2ccccc12.[Na+].[Na+] [sodium salt of 2,2′-bis(carboxymethoxy)-1,1′-binaphthyl]
- concentration of saturated solution in water: 3.8 wt %
